# In ChEMBL document CHEMBL4831477, “Structure-Enabled Discovery of Novel Macrocyclic Inhibitors Targeting Glutaminase 1 Allosteric Binding Site” (J Med Chem, 2021):
# Calls of active or inactive are those of the source. The calls are words filed in the database; no cut-off is given here.
# Assays:
# [1] = Metabolic stability in mouse liver microsomes assessed as half life at 10 uM preincubated for 5 mins followed by NADPH addition by LC-MS/MS analysis; type: ADME, Microsome
# [2] = target: T1, Glutaminase kidney isoform, mitochondrial (Mus musculus) (UniProt D3Z7P3); assay: In vivo inhibition of GLS1 in BALB/c mouse xenografted with human HCT-116 cells assessed as reduction in alpha-ketoglutarate level at 200 mg/kg, po; type: functional, organism-based
# T1 sequence (whole entry): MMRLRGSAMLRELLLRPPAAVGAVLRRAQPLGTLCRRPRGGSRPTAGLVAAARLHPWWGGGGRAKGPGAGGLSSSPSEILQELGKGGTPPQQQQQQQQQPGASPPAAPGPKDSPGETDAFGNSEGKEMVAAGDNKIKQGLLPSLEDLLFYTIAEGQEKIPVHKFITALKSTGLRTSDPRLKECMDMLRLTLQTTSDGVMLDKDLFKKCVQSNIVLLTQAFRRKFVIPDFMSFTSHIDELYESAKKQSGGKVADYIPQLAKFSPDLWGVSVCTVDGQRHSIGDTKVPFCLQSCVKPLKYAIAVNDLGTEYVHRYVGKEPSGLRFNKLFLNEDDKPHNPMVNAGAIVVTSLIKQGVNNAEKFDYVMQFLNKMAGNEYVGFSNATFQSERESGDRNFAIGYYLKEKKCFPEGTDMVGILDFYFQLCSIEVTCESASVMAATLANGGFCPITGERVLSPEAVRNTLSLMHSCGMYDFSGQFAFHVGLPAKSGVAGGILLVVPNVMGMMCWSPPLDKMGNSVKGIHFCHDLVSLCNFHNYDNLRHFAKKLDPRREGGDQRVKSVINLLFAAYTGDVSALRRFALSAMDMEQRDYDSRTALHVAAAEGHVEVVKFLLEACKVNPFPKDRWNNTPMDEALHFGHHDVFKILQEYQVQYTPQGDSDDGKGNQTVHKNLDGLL
# [3] = target: T1, Glutaminase kidney isoform, mitochondrial (Mus musculus); assay: In vivo inhibition of GLS1 in BALB/c mouse xenografted with human HCT-116 cells assessed as reduction in aspartate level at 200 mg/kg, po; type: functional, organism-based
# [4] = Oral bioavailability in Sprague-Dawley rat at 200 mg/kg measured upto 72 hrs by LC-MS/MS analysis; type: ADME, organism-based; conditions: in vivo
# [5] = system: HCT-116; assay: Antiproliferative activity against human HCT116 cells assessed as reduction in cell viability incubated for 72 hrs by MTT assay; type: functional, cell-based; conditions: HCT-116, 72 h
# [6] = system: HCT-116; assay: Induction of ROS generation in human HCT-116 cells incubated for 6 hrs by DCFH-DA dye based flow cytometric analysis; type: functional, cell-based; conditions: dose 50-500 nM
# [7] = Acute toxicity in BALB/c nude mouse assessed as spleen damage at 200 mg/kg, po administered twice daily for 4 weeks by H and E staining based optical microscopic analysis; type: organism-based; conditions: in vivo, 672 h
# [8] = system: HCT-116; assay: Antitumor activity against human HCT-116 cells xenografted in BALB/c nude mouse assessed as karyorrhexis at 200 mg/kg, po administered twice daily measured after 28 days by H and E staining based optical microscopic method; type: functional, organism-based; conditions: time 28.0 day
# [9] = system: HCT-116; assay: Induction of ROS generation in human HCT-116 cells at 500 nM preincubated for 1 hr with NAC followed by compound addition by measured after 3 hrs DCFH-DA dye based flow cytometric analysis; type: functional, cell-based
# [10] = Toxicity in BALB/c nude mouse xenografted with human HCT-116 cells assessed as body weight loss at 200 mg/kg, po administered twice daily for 28 days and measured every 3 days; type: organism-based; conditions: in vivo, 672 h, time 28 day
# [11] = Free plasma protein in mouse; type: ADME, cell-free
# [12] = system: HCT-116; assay: Antitumor activity against human HCT-116 cells xenografted in BALB/c nude mouse assessed as tumor growth inhibition at 200 mg/kg, po administered twice daily measured after 28 days; type: functional; conditions: Mus musculus, HCT-116, po, 672 h, time 28 day, read-out: TGI
# [13] = Clearance in Sprague-Dawley rat at 200 mg/kg, po measured upto 72 hrs by LC-MS/MS analysis; type: ADME, organism-based; conditions: in vivo, 200 mg/kg, 72 h
# [14] = Acute toxicity in BALB/c nude mouse assessed as heart damage at 200 mg/kg, po administered twice daily for 4 weeks by H and E staining based optical microscopic analysis; type: organism-based; conditions: in vivo, 672 h
# [15] = target: T1, Glutaminase kidney isoform, mitochondrial (Mus musculus); assay: In vivo inhibition of GLS1 in BALB/c mouse xenografted with human HCT-116 cells assessed as reduction in glutamate level at 200 mg/kg, po; type: functional, organism-based
# [16] = AUC(0 to t) in Sprague-Dawley rat at 5 mg/kg, iv measured upto 72 hrs by LC-MS/MS analysis; type: ADME, organism-based; design: route intravenous, dose 5 mg/kg, time <=72; conditions: in vivo
# [17] = Metabolic stability in human liver microsomes assessed as half life at 10 uM preincubated for 5 mins followed by NADPH addition by LC-MS/MS analysis; type: ADME, Microsome
structure (smiles),measurement,setting,value
O=C1Cc2cccc(c2)OCC/C=C/CCOc2cccc(c2)CC(=O)Nc2nnc(s2)CCCCc2ccc(nn2)N1,half-life at 10 µM,[1],1.7 h
same,inhibition,[2],Active
same,inhibition,[3],Active
same,bioavailability,[4],9%
same,IC50,[5],80 nM
same,Activity,[6],Dose-Dependent Effect
same,Activity,[7],Non-Toxic
same,Activity,[8],Active
same,Activity,[9],inactive
same,Activity,[10],Non-Toxic
same,fraction unbound,[11],0.129
same,inhibition in vivo at 200 mg/kg,[12],39%
same,CL,[13],61.7 mL/min/kg
same,Activity,[14],Non-Toxic
same,inhibition,[15],Active
same,AUC(0-t) at 72 h,[16],1630 ng·h/mL
same,half-life at 10 µM,[17],2.72 h
